These results are taken from patent publication US20200071773A1, “TUMOR SIGNATURE FOR METASTASIS, COMPOSITIONS OF MATTER METHODS OF USE THEREOF” (Massachusetts Eye and Ear Infirmary, priority 2017, published 2020).

Holding throughout (type): cell-based, human
Test [1] has as its system SCC9 cells. Briefly: scRNA-seq p-EMT gene expression score of treated SCC9 cells. Particulars: scRNA-seq 4 hours after treatment, relative to vehicle, TGFβ 10 ng/mL, inhibitors: 1 μM A-83-01, or DMH-1, A-83-01, CHIR99021 and Y-27632. How it is done:
RNA-seq of Cell Lines. For scRNA-seq, cells were harvested, stained for viability, and sorted into 96-well plates, as described above. cDNA synthesis, library construction, and sequencing were also performed as described. For bulk RNA, RNA was isolated from 1,000 pooled cells using RNEasy Micro Kit (Qiagen).
(§1) TGFβ Treatment and TGFBI Overexpression. For drug treatment experiments, SCC9 cells were grown in vehicle (4 μM HCl with 1 μg/mL BSA), TGFβ, or TGFβ-inhibitor. For TGFβ-treated cells, 10 ng/mL recombinant TGFβ1 (R&D Systems, Minneapolis, Minn.) or TGFβ3 (R&D systems) was applied. Cells in the TGFβ-inhibitor condition were either grown in 3:1 F12:DMEM (ThermoFisher Scientific) with 1 μM A-83-01 (Tocris Bioscience, Bristol, UK) or small airway basal medium (Lonza, Basel, Switzerland) with four inhibitors of the TGFβ pathway: 1 μM DMH-1, 1 μM A-83-01, 1 μM CHIR99021 (Tocris Bioscience), and 10 μM Y-27632 (Selleck Chemicals, Houston, Tex.). For scRNA-seq, cells in each condition were harvested 4 hours after treatment. […]
Defining Cell and Sample Scores. […] However, such initial scores may be confounded by cell complexity, as cells with higher complexity have more genes detected (i.e. less zeros) and consequently would be expected to have higher cell scores for any gene-set. […] First, all analyzed genes are binned into 25 bins of equal size based on their aggregate expression levels (Ea). […]

Test [2] has as its system SCC9 cells. Briefly: Matrigel invasion assay. How it is done: TGFβ Treatment and TGFBI Overexpression. For drug treatment experiments, SCC9 cells were grown in vehicle (4 μM HCl with 1 μg/mL BSA), TGFβ, or TGFβ-inhibitor. For TGFβ-treated cells, 10 ng/mL recombinant TGFβ1 (R&D Systems, Minneapolis, Minn.) or TGFβ3 (R&D systems) was applied. Cells in the TGFβ-inhibitor condition were either grown in 3:1 F12:DMEM (ThermoFisher Scientific) with 1 μM A-83-01 (Tocris Bioscience, Bristol, UK) or small airway basal medium (Lonza, Basel, Switzerland) with four inhibitors of the TGFβ pathway: 1 μM DMH-1, 1 μM A-83-01, 1 μM CHIR99021 (Tocris Bioscience), and 10 μM Y-27632 (Selleck Chemicals, Houston, Tex.). For scRNA-seq, cells in each condition were harvested 4 hours after treatment. For bulk RNA-seq, cells were harvested 2, 4, or 6 days after treatment and titrated for analysis. For matrigel invasion assay and cell proliferation assays, cells were maintained in the given conditions for the duration of the experiment.
Matrigel Invasion Assay. Matrigel invasion assay was performed as previously described (Puram et al., 2012). […] Cells on the lower surface of the membrane were fixed with methanol, stained with crystal violet, and counted in a blinded manner. […]
Matrigel Invasion Assay. […] Invaded cells in each well were counted in a blinded manner across four distinct high powered fields and averaged. Error was calculated as SEM for a representative experiment.

The test system of test [3] is SCC9 cells. Briefly: CellTiter-Glo cell proliferation assay. Conditions: relative to vehicle. The protocol: as §1
Cell Proliferation Assay. […] Cells were lysed on days 2, 4, and 6 by adding CTG reagent (Promega), and point luminescence was measured via the BioTek Synergy HTX Platereader (BioTek, Winooski, Vt.). […] CTG luminescence values for individual wells were normalized by subtracting background luminescence (mean luminescence values for wells containing PBS, with CTG reagent added), adjusting for 2 μM adenosine triphosphate (ATP) luminescence measured on the same 96-well plate, and normalizing by numbers of plated cells in each condition (as measured by T0 luminescence).
Cell Proliferation Assay. […] Error was calculated as SEM for a representative experiment.
(Cellular ATP, detected with luciferase, serves as a proxy for viable cell number.)

“Also recorded” adds a separate entry of the source.

Regarding TGFβ, in the test on SCC9 cells [1], the “p-EMT program / p-EMT gene expression score” value was “coherent induction; also recorded: induce a p-EMT-like program”. Further, in the test with SCC9 cells [2] (SCC9 TGFBI CRISPR knockout cells versus mock infected), the “TGFβ response (invasiveness) after genetic inactivation of TGFBI” value is reported as “abrogated”. For the same molecule, the relative invasiveness entry in the test with SCC9 cells [2] (SCC9 cells, 24 hours, relative to vehicle) is listed as “increased”. For the same molecule, the relative proliferation result with SCC9 cells [3] is “reduced”.

B1: TGF4β3: recombinant TGFβ3 (R&D systems), CAF-related ligand (protein, UniProt P10600 301-412, looked up)
Transforming growth factor …: ALDTNYCFRNLEENCCVRPLYIDFRQDLGWKWVHEPKGYYANFCSGPCPYLRSADTTHSTVLGLYNTLNPEASASPCCVPQDLEPLTILYYVGRTPKVEQLSNMVVKSCKCS
With B1, the “p-EMT program / p-EMT gene expression score” value with SCC9 cells [1] was “increased”.
